Literature values in patent publication US20150217002A1, “NEAR-INFRARED SPECTROSCOPY AND OPTICAL REPORTER” (THE RESEARCH FOUNDATION FOR THE STATE UNIVERSITY OF NEW YORK, priority 2012, published 2015).

Columns and labels:
[1] = in blood excited with 800 nm light, 0.08 mg/L
[2] = removed from the circulation system by the liver

quantum yield [1]: about 0.013
in vivo half-life [2]: about 3 minutes
Compound: CC1(C)C(/C=C/C=C/C=C/C=C2\N(CCCCS(=O)(=O)O)c3ccc4ccccc4c3C2(C)C)=[N+](CCCCS(=O)(=O)[O-])c2ccc3ccccc3c21 [ICG, indocyanine green]
